Data: patent US20230172940A1, “METHODS OF EXTENDING LIFESPAN BY ADMINISTERING FERROPTOSIS INHIBITORS” (COLLABORATIVE MEDICINAL DEVELOPMENT, LLC, priority 2020, published 2023)
Counter-ions that a name gives are not always drawn.

Legend:
Format in all cases: in vivo, Caenorhabditis elegans
C. elegans strain TJ1060 = test: Glutathione depletion: survival after diethyl maleate (DEM) exposure; settings: for DEM toxicity (survival): 4-day old worms, 200 μM Lip-1 or 250 μM SIH from late L4
Protocol: Diethyl maleate (DEM; Sigma-Aldrich) was added to neat DMSO and added to molten NGM at 55° C. to a final concentration of 5^o 10^o 15 or 20 mM DEM and 0.5% v/v DMSO. Plates were seeded with OP50 and used within 24 hours. As above^o data was collected at 25 (±1) ° C. using the temperature sensitive-sterile strain TJ1060. A synchronous population was obtained by transferring egg-laying adults to fresh plates at 16° C. for 2-3 hours. The adults were removed and the plates with eggs then transferred to 25° C. to ensure sterility. After 48 hours at 25° C.^o when worms were at the late L4/young adult stage^o 25-35 nematodes were transferred to fresh plates containing either vehicle control^o 250 μM SIH^o or 200 μM Lip-1. Worms were aged at 25° C. for a further 4 days and then transferred to DEM plates. Survival^o determined by touch-provoked movement^o was scored at 24 and 48 hours after exposure to DEM.
Aging studies were also undertaken to determine changes with age of both survival after DEM exposure and basal glutathione levels. Initial populations were obtained as describe above^o with worms aged on standard NGA plates. Note that here we refer to the age of adults as determined by the number of days following the last larval molt and therefore reflects the number of days of adulthood^o not the time since egg.
For survival with increasing DEM dose response and protection by compounds (Lip-1 and SIH), data was plotted as fraction of animal alive with upper and lower 95% confidence interval, using the Wilson ‘score’ method using asymptotic variance and fitted with a sigmoidal curve (Prism). Pairwise comparisons of treated groups versus control at each concentration of DEM was determined using the N-1 chi-squared test.

malondialdehyde (MDA) = test: Lipid peroxidation: malondialdehyde (TBARS assay); settings: for aged-related increase in MDA: aging at 25° C
Protocol: Measurement of malondialdehyde (MDA) was performed using a Thiobarbituric acid reactive substances (TBARS) assay kit (10009055^o Caymen Chemical) as per manufacturer instructions using reduced reaction volumes of 1 mL. For C. elegans samples with acute glutathione depletion^o Day 1 adults were treated with and without 20 mM DEM for 6 h at 25° C. prior to collection. For aging^o animals were aged at 25° C. and treated with Lip-1 or SIH as previously described. Replicate samples were collected^o washed twice in S-basal^o pelleted by centrifugation. Following removal of excess buffer samples (^˜40 μL) were frozen in liquid-N2 and stored at −80° C. until needed. Samples were then homogenized via a Bioruptor bath sonicator (Diagenode^o set on ‘high power’ with 10 cycles of 10 s pulses with a 10 s pause between pulses^o at 4° C.)^o then centrifuged at 21^o500×g at 4° C. for 30 min and the supernatant retained. The concentration of protein was determined using a BCA assay kit (Pierce) and equivalent aliquots of 20-25 μg total protein used for subsequent measurements.

[1] = test system: Fe^2+/Fe(total) in anterior intestinal cells; test: XANES imaging of iron speciation; settings: for age-related increase in the Fe^2+ fraction: anterior intestinal region
Protocol: Adult C. elegans were removed from NGM, washed four times in excess ice-cold S-basal (0.1 M NaCl; 0.05 M KHPO4 at pH 6.0). Samples were transferred onto 0.5 μm-thick silicon nitride (Si3N4) window (Silson), excess buffer wicked away and then the slide was frozen in situ under a laminar stream of 100° K. dry nitrogen (N2) gas.
The beam energy was selected using a Si(311) double-crystal monochromator with a resolution of ˜0.5 eV. !XANES imaging was achieved by recording Fe XRF at 106 incident energies spanning the Fe Kedge (7112 eV). Measurement energy interval was commensurate with anticipated structure in the XANES:
As for XFM, !XANES measurements used a beam spot ^˜2×2 jim but data was recorded using continuous scanning at 0.2 mm sec^−1 (binned at 2 jim intervals). Transit time through each virtual pixel was 10 ms and the incident X-ray intensity at 7455 eV was ^˜1.67×10^10 photons s^−1. These imaging parameters gave a total dose associated with the qXANES measurement estimated at ^˜5 MGy. This value is commensurate with doses typically delivered during bulk X-ray absorption spectroscopy. qXANES Analysis
The XANES spectra from an iron foil (50.1 jig cm^−2, Micromatter Canada) was measured to monitor the energy calibration of the beamline. The maxima of the first peak in the derivative spectra of the iron foil was subsequently defined as 7112.0 eV. The energy stability of beamline has been determined at <0.25 eV over 24 hrs making energy drift over the course of a scan negligible. Consistency of the measured edge positions in conjunction with stability of beam position and flux recorded in ion chambers upstream the specimen position provide confidence that energy stability was high through the duration of the experiment. Small position drifts were aligned by cross-correlation of the calcium map which remains essentially constant throughout the energy series.
The aligned qXANES image series is stack of images, one per incident energy allowing the XANES of individual cells to be assessed. Previous work has shown that the distribution of calcium is a useful marker for the position of C. elegans intestinal cells, and we used this information to identify regions of interest in the qXANES stack corresponding to anterior intestinal cells. Anterior intestinal cells were chosen due to their consistent and robust iron content.
As all points on the specimen represent a heterogenous mixture of iron binding species the resulting XANES spectra are admixtures with contributions from all of these components. The technical particulars of the XFM beamline (being primarily designed for elemental mapping) are not optimized for high resolution spectroscopy and our XANES spectra are relatively sparse. For iron K-edge XANES the abrupt increase in absorption coefficient at the critical threshold obscures the presence of […] and 1s→4p electronic transitions. It has been shown that the relative intensity of these transitions provides the proportional contribution of Fe^2+ and Fe^3+ to the XANES and can be assessed by interrogating the first derivative of the XANES spectra.

[2] = TJ1060, Day 8, anterior intestinal cells
[3] = aged animals under intervention

SMILES | lethality (C. elegans strain TJ1060; 10 mM DEM, 24-hour exposure, 4-day old adult worms) | death of adult worms (C. elegans strain TJ1060; DEM≥1 mM, 4-day old adult worms, dose- and time-dependent) | relative amounts of MDA (malondialdehyde (MDA); acute glutathione depletion by DEM exposure (20 mM, 6 h, Day 1 adults)) | Fe^2+ fraction of the total iron ([1]; 4 day old wild type worms, lethal glutathione depletion by DEM) | Mean Fe^2+/Fe(total) ([1]; N2, Day 4 + DEM) | Fe^2+/Fe(total) ([1]; wild type (N2) animals treated with DEM) | DEM toxicity (survival) (C. elegans strain TJ1060) | aged-related increase in MDA (malondialdehyde (MDA)) | Mean Fe^2+/Fe(total) [1, 2] | Fe^2+ fraction of the total iron [1, 3] | age-related increase in the Fe^2+ fraction [1]
CCOC(=O)/C=C\C(=O)OCC [DEM, Diethyl maleate] | ≈ 50% | induced death | marked increase | about 0.3 | 0.310 | markedly increased |  |  |  |  | 
Clc1cccc(CNC2=Nc3ccccc3NC23CCNCC3)c1 [Lip-1, N-[(3-chlorophenyl)methyl]-spiro[piperidine-4,2′(1′H)-quinoxalin]-3′-amine] |  |  |  |  |  |  | rescued | ameliorated | 0.231 | ≈ 0.2 | normalized to that of a young animal
O=C(N/N=C/c1ccccc1O)c1ccncc1 [SIH, Salicylaldehyde isonicotinoyl hydrazone] |  |  |  |  |  |  | rescued | ameliorated | 0.236 | ≈ 0.2 | normalized to that of a young animal
